Results as given in the NIST ThermoML archive (doi:10.1016/j.jct.2017.06.006).
± gives the expanded uncertainty stated by the source.

Assay: mn = molality of the nth substance listed, in mol/kg
Settings: 100 kPa, Liquid, Vibrating tube method

CCCCn1cc[n+](C)c1C.[Br-] [1-butyl-2,3-dimethylimidazolium bromide] + O
m1 = 0.1
Settings	mass density [kg/m3]
283.15 K	1004.75 ± 0.36
288.15 K	1004.08 ± 0.36
293.15 K	1003.12 ± 0.36
298.15 K	1001.89 ± 0.36
303.15 K	1000.44 ± 0.36

O [water] + N[C@@H](Cc1ccccc1)C(=O)O
Settings	mass density [kg/m3]
283.15 K, m2 = 0	999.72 ± 0.3

O [water] + CCCCn1cc[n+](C)c1C.[Br-]
Settings	mass density [kg/m3]
283.15 K, m2 = 0	999.72 ± 0.36

N[C@@H](Cc1ccccc1)C(=O)O [L-phenylalanine] + O
mass density [kg/m3]
Settings	m1 = 0.0102	m1 = 0.0203	m1 = 0.0293	m1 = 0.0398	m1 = 0.0509	m1 = 0.0606	m1 = 0.061	m1 = 0.0736	m1 = 0.0915	m1 = 0.1028
283.15 K	1000.19 ± 0.3	1000.64 ± 0.3	1001.05 ± 0.3	1001.53 ± 0.3	1002.02 ± 0.3	1002.47 ± 0.3	1002.49 ± 0.3	1003.05 ± 0.3	1003.87 ± 0.3	1004.36 ± 0.3
288.15 K	999.59 ± 0.3	1000.04 ± 0.3	1000.44 ± 0.3	1000.91 ± 0.3	1001.39 ± 0.3	1001.83 ± 0.31	1001.85 ± 0.3	1002.4 ± 0.3	1003.2 ± 0.3	1003.69 ± 0.3
293.15 K	998.69 ± 0.3	999.13 ± 0.3	999.52 ± 0.3	999.98 ± 0.3	1000.46 ± 0.3	1000.9 ± 0.31	1000.91 ± 0.3	1001.45 ± 0.3	1002.24 ± 0.3	1002.73 ± 0.3
298.15 K	997.52 ± 0.3	997.95 ± 0.3	998.35 ± 0.3	998.8 ± 0.3	999.27 ± 0.3	999.7 ± 0.31	999.71 ± 0.3	1000.25 ± 0.3	1001.03 ± 0.3	1001.5 ± 0.3
303.15 K	996.12 ± 0.3	996.54 ± 0.3	996.93 ± 0.3	997.38 ± 0.3	997.85 ± 0.3	998.27 ± 0.3	998.28 ± 0.3	998.81 ± 0.3	999.58 ± 0.3	1000.05 ± 0.3
